The target in one assay is hNav1.7 (Homo sapiens, UniProt Q15858). The experiment in a line: cell-based. The assay is classed as cell-based. The conditions noted are these: Table 12; PatchXpress, tonic block; read-out: PX hNav1.7 Tonic IC50.
The target in another assay is hNav1.4 (Homo sapiens, UniProt P35499). The assay can be described thus: cell-based. The assay is classed as cell-based. The settings on record: Table 12; for IC50: PatchXpress, tonic block, read-out: PX hNav1.4 Tonic IC50; for Nav1.4/Nav1.7: ratio of PX tonic IC50 values.

Structures are written as SMILES. Bridge positions count the residues as written; N and C are the ends. Square brackets hold non-standard residues; d marks the D form. Peptide text beside a SMILES is read from it. Cha = N[C@@H](CC1CCCCC1)C(=O)O; Ala(CN) = N#CC[C@H](N)C(=O)O; Nle = CCCC[C@H](N)C(=O)O; Pra = C#CC[C@H](N)C(=O)O

Chain of hNav1.7 (Q15858 whole entry): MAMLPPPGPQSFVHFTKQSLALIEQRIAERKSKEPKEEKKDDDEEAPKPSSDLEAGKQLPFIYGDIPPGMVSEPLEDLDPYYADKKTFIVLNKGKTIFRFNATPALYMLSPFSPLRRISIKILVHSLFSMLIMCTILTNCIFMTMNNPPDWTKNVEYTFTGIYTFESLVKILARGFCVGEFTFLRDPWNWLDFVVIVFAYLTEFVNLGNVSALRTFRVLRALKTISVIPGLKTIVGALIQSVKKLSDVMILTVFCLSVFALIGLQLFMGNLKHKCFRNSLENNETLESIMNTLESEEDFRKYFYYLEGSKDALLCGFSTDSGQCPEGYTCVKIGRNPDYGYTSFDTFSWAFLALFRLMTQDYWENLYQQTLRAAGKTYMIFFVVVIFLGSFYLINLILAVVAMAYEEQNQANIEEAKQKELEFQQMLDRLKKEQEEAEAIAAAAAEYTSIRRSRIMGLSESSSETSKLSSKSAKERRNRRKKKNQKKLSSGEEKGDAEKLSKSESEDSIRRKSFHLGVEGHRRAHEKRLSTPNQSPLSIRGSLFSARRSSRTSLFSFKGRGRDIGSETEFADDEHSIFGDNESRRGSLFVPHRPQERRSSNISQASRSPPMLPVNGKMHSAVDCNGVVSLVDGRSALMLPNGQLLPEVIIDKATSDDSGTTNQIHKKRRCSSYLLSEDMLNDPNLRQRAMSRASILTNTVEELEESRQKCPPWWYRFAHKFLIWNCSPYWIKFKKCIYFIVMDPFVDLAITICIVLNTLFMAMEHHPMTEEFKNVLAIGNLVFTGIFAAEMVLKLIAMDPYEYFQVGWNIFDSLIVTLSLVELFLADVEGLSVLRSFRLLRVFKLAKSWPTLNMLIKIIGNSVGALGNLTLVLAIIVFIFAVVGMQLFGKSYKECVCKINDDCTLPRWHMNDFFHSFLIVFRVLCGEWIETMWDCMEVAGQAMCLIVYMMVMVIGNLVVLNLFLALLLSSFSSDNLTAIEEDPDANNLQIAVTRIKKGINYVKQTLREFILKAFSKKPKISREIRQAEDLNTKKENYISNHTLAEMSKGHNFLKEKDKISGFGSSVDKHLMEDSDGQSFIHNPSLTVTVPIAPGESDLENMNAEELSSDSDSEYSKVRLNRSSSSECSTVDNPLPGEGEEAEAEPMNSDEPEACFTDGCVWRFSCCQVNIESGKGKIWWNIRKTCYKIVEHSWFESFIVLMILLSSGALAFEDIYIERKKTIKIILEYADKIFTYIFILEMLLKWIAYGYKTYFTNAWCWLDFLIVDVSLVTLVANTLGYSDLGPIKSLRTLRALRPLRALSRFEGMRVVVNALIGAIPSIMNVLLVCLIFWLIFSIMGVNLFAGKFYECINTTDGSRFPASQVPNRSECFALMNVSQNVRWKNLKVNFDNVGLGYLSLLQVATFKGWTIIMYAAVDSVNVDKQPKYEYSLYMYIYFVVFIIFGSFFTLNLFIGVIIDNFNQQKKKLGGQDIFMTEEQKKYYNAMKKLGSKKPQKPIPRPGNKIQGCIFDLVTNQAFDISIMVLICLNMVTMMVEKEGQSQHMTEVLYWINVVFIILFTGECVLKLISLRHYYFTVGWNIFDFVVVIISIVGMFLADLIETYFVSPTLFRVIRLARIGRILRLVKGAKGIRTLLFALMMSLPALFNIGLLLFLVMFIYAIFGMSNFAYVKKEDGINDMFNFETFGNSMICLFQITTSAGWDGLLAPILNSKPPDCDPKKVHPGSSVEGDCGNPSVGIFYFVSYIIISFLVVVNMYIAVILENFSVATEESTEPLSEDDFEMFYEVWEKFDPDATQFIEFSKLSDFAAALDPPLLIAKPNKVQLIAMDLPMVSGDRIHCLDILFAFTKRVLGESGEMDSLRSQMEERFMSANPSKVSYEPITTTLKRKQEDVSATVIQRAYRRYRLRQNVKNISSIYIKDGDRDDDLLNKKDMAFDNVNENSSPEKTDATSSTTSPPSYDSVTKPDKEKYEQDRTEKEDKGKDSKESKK
Chain of hNav1.4 (P35499 whole entry): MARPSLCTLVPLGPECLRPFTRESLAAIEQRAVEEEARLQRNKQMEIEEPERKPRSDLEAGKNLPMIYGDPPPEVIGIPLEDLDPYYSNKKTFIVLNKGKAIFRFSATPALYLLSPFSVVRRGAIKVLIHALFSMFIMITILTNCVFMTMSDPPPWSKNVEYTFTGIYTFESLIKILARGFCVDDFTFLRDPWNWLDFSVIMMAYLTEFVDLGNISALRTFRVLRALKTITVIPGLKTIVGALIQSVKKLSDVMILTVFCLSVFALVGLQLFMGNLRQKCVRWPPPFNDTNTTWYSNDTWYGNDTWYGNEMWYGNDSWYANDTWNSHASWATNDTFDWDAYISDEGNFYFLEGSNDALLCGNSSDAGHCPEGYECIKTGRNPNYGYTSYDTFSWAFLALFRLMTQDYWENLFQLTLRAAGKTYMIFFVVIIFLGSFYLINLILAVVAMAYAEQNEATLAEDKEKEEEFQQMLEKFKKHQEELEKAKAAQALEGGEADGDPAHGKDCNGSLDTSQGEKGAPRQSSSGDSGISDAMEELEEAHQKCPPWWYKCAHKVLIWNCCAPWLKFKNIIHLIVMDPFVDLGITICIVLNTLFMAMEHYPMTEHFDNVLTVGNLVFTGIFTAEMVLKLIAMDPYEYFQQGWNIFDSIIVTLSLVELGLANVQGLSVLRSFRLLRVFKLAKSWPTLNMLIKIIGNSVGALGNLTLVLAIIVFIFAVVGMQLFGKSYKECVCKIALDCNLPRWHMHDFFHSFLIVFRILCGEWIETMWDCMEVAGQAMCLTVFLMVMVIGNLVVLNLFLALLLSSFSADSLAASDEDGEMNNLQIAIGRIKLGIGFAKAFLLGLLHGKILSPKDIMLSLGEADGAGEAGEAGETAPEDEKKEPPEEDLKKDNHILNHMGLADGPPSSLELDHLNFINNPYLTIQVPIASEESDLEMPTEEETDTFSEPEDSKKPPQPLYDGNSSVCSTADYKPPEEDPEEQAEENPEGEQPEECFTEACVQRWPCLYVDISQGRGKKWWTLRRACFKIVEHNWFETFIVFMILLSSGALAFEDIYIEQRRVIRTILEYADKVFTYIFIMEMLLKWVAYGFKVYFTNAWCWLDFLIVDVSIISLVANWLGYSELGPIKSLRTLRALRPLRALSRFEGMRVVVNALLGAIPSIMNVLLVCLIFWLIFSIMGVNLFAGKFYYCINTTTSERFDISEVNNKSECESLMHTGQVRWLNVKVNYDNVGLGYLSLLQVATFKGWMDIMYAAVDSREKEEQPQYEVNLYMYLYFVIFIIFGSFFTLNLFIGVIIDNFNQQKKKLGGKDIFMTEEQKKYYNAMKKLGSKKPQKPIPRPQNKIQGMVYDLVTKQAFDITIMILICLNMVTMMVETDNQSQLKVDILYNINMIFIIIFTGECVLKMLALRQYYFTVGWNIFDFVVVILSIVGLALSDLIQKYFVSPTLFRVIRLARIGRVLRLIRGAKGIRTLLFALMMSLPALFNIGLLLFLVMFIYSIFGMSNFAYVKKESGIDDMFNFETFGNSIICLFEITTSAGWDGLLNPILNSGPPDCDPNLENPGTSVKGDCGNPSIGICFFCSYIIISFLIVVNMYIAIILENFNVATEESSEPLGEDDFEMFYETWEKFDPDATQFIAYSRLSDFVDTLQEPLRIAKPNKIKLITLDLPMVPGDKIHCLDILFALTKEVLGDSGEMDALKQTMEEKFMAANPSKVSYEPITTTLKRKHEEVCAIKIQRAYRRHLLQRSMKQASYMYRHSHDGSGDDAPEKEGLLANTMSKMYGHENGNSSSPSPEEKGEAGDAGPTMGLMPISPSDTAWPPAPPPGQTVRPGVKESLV

For `C#CC[C@H](N)C(=O)N[C@@H](Cc1ccc(O)cc1)C(=O)N[C@H]1CSSC[C@@H]2NC(=O)[C@@H]3CSSC[C@@H](C(=O)N[C@@H](CCCNC(=N)N)C(=O)N[C@@H](CCCCN)C(=O)N[C@@H](CCC(=O)O)C(=O)N[C@@H](CC4CCCCC4)C(N)=O)NC(=O)[C@H](Cc4c[nH]c5ccccc45)NC(=O)[C@H](CC(C)C)NC(=O)[C@H](CCCCN)NC(=O)[C@H](CSSC[C@H](NC(=O)[C@H]([C@@H](C)O)NC(=O)[C@H](Cc4c[nH]c5ccccc45)NC(=O)[C@H](CCCC)NC(=O)[C@H](Cc4c[nH]c5ccccc45)NC(=O)[C@H](CCCCN)NC(=O)[C@H](CCC(N)=O)NC1=O)C(=O)N[C@@H](CC(=O)O)C(=O)N[C@@H](CO)C(=O)N[C@@H](CCCCN)C(=O)N[C@@H](CCCNC(=N)N)C(=O)N[C@@H](C)C(=O)N3)NC(=O)[C@H](CCCNC(=N)N)NC(=O)[C@H](CC(C)C)NC(=O)CNC(=O)[C@H](CCC(=O)O)NC2=O` [compound 862], the IC50 on hNav1.7 amounted to 0.593 nM. Besides, on hNav1.4, the IC50 stood at 36.6 nM and the Nav1.4/Nav1.7 is given as 62.
On the same counts, the results for `C#CC[C@H](N)C(=O)N[C@@H](Cc1ccc(O)cc1)C(=O)N[C@H]1CSSC[C@@H]2NC(=O)[C@@H]3CSSC[C@@H](C(=O)N[C@@H](CCCNC(=N)N)C(=O)N[C@@H](CCCCN)C(=O)N[C@@H](CCC(=O)O)C(=O)N[C@H](C(N)=O)[C@@H](C)CC)NC(=O)[C@H](Cc4c[nH]c5ccccc45)NC(=O)[C@H](CC(C)C)NC(=O)[C@H](CCCCN)NC(=O)[C@H](CSSC[C@H](NC(=O)[C@H]([C@@H](C)O)NC(=O)[C@H](Cc4c[nH]c5ccccc45)NC(=O)[C@H](Cc4ccccc4)NC(=O)[C@H](Cc4c[nH]c5ccccc45)NC(=O)[C@H](CCCCN)NC(=O)[C@H](CCC(N)=O)NC1=O)C(=O)N[C@@H](CC(=O)O)C(=O)N[C@@H](CO)C(=O)N[C@@H](CCCCN)C(=O)N[C@@H](CCCNC(=N)N)C(=O)N[C@@H](C)C(=O)N3)NC(=O)[C@H](CCCNC(=N)N)NC(=O)[C@H](CC(C)C)NC(=O)CNC(=O)[C@H](CCC(=O)O)NC2=O` [compound 863] are 1.36 nM, 61.6 nM and 45.
Taken in the same sequence, the figures for `C#CC[C@@H]1NC(=O)[C@@H]2CSSC[C@H](NC(=O)[C@H](CCC(=O)O)NC(=O)[C@@H](N)CC#N)C(=O)N[C@@H](CCC(N)=O)C(=O)N[C@@H](CCCCN)C(=O)N[C@@H](Cc3c[nH]c4ccccc34)C(=O)N[C@@H](CCCC)C(=O)N[C@@H](Cc3c[nH]c4ccccc34)C(=O)N[C@@H]([C@@H](C)O)C(=O)N[C@H]3CSSC[C@H](NC(=O)[C@H](CCCNC(=N)N)NC(=O)[C@H](CC(C)C)NC(=O)CNC1=O)C(=O)N[C@@H](CCCCN)C(=O)N[C@@H](CC(C)C)C(=O)N[C@@H](Cc1c[nH]c4ccccc14)C(=O)N[C@H](C(=O)N[C@@H](CCCNC(=N)N)C(=O)N[C@@H](CCCCN)C(=O)N[C@@H](CCC(=O)O)C(=O)N[C@@H](CC1CCCCC1)C(N)=O)CSSC[C@H](NC(=O)[C@H](C)NC(=O)[C@H](CCCNC(=N)N)NC(=O)[C@H](CCCCN)NC(=O)[C@H](CO)NC(=O)[C@H](CC(=O)O)NC3=O)C(=O)N2` [compound 866] were 0.321 nM, 37.6 nM and 117.
Regarding `C#CC[C@@H]1NC(=O)[C@@H]2CSSC[C@H](NC(=O)[C@H](CCC(=O)O)NC(=O)[C@@H](N)CC#N)C(=O)N[C@@H](CCC(N)=O)C(=O)N[C@@H](CCCCN)C(=O)N[C@@H](Cc3c[nH]c4ccccc34)C(=O)N[C@@H](CCCC)C(=O)N[C@@H](Cc3c[nH]c4ccccc34)C(=O)N[C@@H]([C@@H](C)O)C(=O)N[C@H]3CSSC[C@H](NC(=O)[C@H](CCCNC(=N)N)NC(=O)[C@H](CC(C)C)NC(=O)CNC1=O)C(=O)N[C@@H](CCCCN)C(=O)N[C@@H](CC(C)C)C(=O)N[C@@H](Cc1c[nH]c4ccccc14)C(=O)N[C@H](C(=O)N[C@@H](CCCNC(=N)N)C(=O)N[C@@H](CCCCN)C(=O)N[C@@H](CCC(=O)O)C(=O)N[C@@H](CC1CCCCC1)C(N)=O)CSSC[C@H](NC(=O)[C@H](C)NC(=O)[C@H](CCCNC(=N)N)NC(=O)[C@H](CCCCN)NC(=O)[C@H](CCC(=O)O)NC(=O)[C@H](CC(=O)O)NC3=O)C(=O)N2` [compound 869] (H-[Ala(CN)]ECQKW[Nle]WTCDEKRACC[Pra]GLRCKLWCRKE[Cha]-NH2; disulfide 3-17, 10-22, 16-26), on hNav1.7, the IC50 turned out to be 0.95 nM. For the same compound, at hNav1.4, the concentration for half-maximal inhibition (IC50) is 294 nM and the Nav1.4/Nav1.7 is on record as 311.
For the compound `C#CC[C@H](N)C(=O)N[C@@H](Cc1ccc(O)cc1)C(=O)N[C@H]1CSSC[C@@H]2NC(=O)[C@@H]3CSSC[C@@H](C(=O)N[C@@H](CCCNC(=N)N)C(=O)N[C@@H](CCCCN)C(=O)N[C@H](C(=O)N[C@H](C(N)=O)[C@@H](C)CC)[C@@H](C)CC)NC(=O)[C@H](Cc4c[nH]c5ccc(Br)cc45)NC(=O)[C@H](CC(C)C)NC(=O)[C@H](CCCCN)NC(=O)[C@H](CSSC[C@H](NC(=O)[C@H]([C@@H](C)O)NC(=O)[C@H](Cc4c[nH]c5ccccc45)NC(=O)[C@H](CCCC)NC(=O)[C@H](Cc4c[nH]c5ccccc45)NC(=O)[C@H](CCCCN)NC(=O)[C@H](CCC(N)=O)NC1=O)C(=O)N[C@@H](CC(=O)O)C(=O)N[C@@H](CO)C(=O)N[C@@H](CCCCN)C(=O)N[C@@H](CCCNC(=N)N)C(=O)N[C@@H](C)C(=O)N3)NC(=O)[C@H](CCCNC(=N)N)NC(=O)[C@H](CC(C)C)NC(=O)CNC(=O)[C@H](CCC(=O)O)NC2=O` [compound 871], the IC50 at hNav1.7 was 1.66 nM. Further, at hNav1.4, the IC50 is 11 nM and the Nav1.4/Nav1.7 amounted to 7.
On to `C#CC[C@@H]1NC(=O)[C@@H]2CSSC[C@H](NC(=O)[C@H](Cc3ccc(O)cc3)NC(=O)[C@@H](N)CC#N)C(=O)N[C@@H](CCC(N)=O)C(=O)N[C@@H](CCCCN)C(=O)N[C@@H](Cc3c[nH]c4ccccc34)C(=O)N[C@@H](CCCC)C(=O)N[C@@H](Cc3c[nH]c4ccccc34)C(=O)N[C@@H]([C@@H](C)O)C(=O)N[C@H]3CSSC[C@H](NC(=O)[C@H](CCCNC(=N)N)NC(=O)[C@H](CC(C)C)NC(=O)CNC1=O)C(=O)N[C@@H](CCCCN)C(=O)N[C@@H](CC(C)C)C(=O)N[C@@H](Cc1c[nH]c4ccc(Br)cc14)C(=O)N[C@H](C(=O)N[C@@H](CCCNC(=N)N)C(=O)N[C@@H](CCCCN)C(=O)N[C@H](C(=O)N[C@H](C(N)=O)[C@@H](C)CC)[C@@H](C)CC)CSSC[C@H](NC(=O)[C@H](C)NC(=O)[C@H](CCCNC(=N)N)NC(=O)[C@H](CCCCN)NC(=O)[C@H](CO)NC(=O)[C@H](CC(=O)O)NC3=O)C(=O)N2` [compound 872], for which the figures for the IC50 at hNav1.7 and on hNav1.4 were 1.09 nM and 3.6 nM, respectively. The Nav1.4/Nav1.7 at hNav1.4 is on record as 3.
For `C#CC[C@@H]1NC(=O)[C@@H]2CSSC[C@H](NC(=O)[C@H](Cc3ccc(O)cc3)NC(=O)[C@@H](N)CC#N)C(=O)N[C@@H](CCC(N)=O)C(=O)N[C@@H](CCCCN)C(=O)N[C@@H](Cc3c[nH]c4ccccc34)C(=O)N[C@@H](CCCC)C(=O)N[C@@H](Cc3c[nH]c4ccccc34)C(=O)N[C@@H]([C@@H](C)O)C(=O)N[C@H]3CSSC[C@H](NC(=O)[C@H](CCCNC(=N)N)NC(=O)[C@H](CC(C)C)NC(=O)CNC1=O)C(=O)N[C@@H](CCCCN)C(=O)N[C@@H](CC(C)C)C(=O)N[C@@H](Cc1c[nH]c4ccccc14)C(=O)N[C@H](C(=O)N[C@@H](CCCNC(=N)N)C(=O)N[C@@H](CCCCN)C(=O)N[C@@H](CCC(=O)O)C(=O)N[C@@H](Cc1ccccc1)C(N)=O)CSSC[C@H](NC(=O)[C@H](C)NC(=O)[C@H](CCCNC(=N)N)NC(=O)[C@H](CCCCN)NC(=O)[C@H](CO)NC(=O)[C@H](CC(=O)O)NC3=O)C(=O)N2` [compound 876], the IC50 on hNav1.7 is 1.09 nM. Also, at hNav1.4, the IC50 was determined as 72.1 nM and the Nav1.4/Nav1.7 amounted to 66.
Consider `C#CC[C@@H]1NC(=O)[C@@H]2CSSC[C@H](NC(=O)[C@H](Cc3ccc(O)cc3)NC(=O)[C@@H](N)CC#N)C(=O)N[C@@H](CCC(N)=O)C(=O)N[C@@H](CCCCN)C(=O)N[C@@H](Cc3c[nH]c4ccccc34)C(=O)N[C@@H](CCCC)C(=O)N[C@@H](Cc3c[nH]c4ccccc34)C(=O)N[C@@H]([C@@H](C)O)C(=O)N[C@H]3CSSC[C@H](NC(=O)[C@H](CCCNC(=N)N)NC(=O)[C@H](CC(C)C)NC(=O)CNC1=O)C(=O)N[C@@H](CCCCN)C(=O)N[C@@H](CC(C)C)C(=O)N[C@@H](Cc1c[nH]c4ccccc14)C(=O)N[C@H](C(=O)N[C@@H](CCCNC(=N)N)C(=O)N[C@@H](CCCCN)C(=O)N[C@@H](CCC(=O)O)C(=O)N[C@@H](CCc1ccccc1)C(N)=O)CSSC[C@H](NC(=O)[C@H](C)NC(=O)[C@H](CCCNC(=N)N)NC(=O)[C@H](CCCCN)NC(=O)[C@H](CO)NC(=O)[C@H](CC(=O)O)NC3=O)C(=O)N2` [compound 877], for which the IC50 at hNav1.7 stood at 0.16 nM; on hNav1.4, 14.9 nM. Moreover, the Nav1.4/Nav1.7 on hNav1.4 is recorded as 93.
On the same counts, the results for `C#CC[C@@H]1NC(=O)[C@@H]2CSSC[C@H](NC(=O)[C@H](Cc3ccc(O)cc3)NC(=O)[C@@H](N)CC#N)C(=O)N[C@@H](CCC(N)=O)C(=O)N[C@@H](CCCCN)C(=O)N[C@@H](Cc3c[nH]c4ccccc34)C(=O)N[C@@H](CCCC)C(=O)N[C@@H](Cc3c[nH]c4ccccc34)C(=O)N[C@@H]([C@@H](C)O)C(=O)N[C@H]3CSSC[C@H](NC(=O)[C@H](CCCNC(=N)N)NC(=O)[C@H](CC(C)C)NC(=O)CNC1=O)C(=O)N[C@@H](CCCCN)C(=O)N[C@@H](CC(C)C)C(=O)N[C@@H](Cc1c[nH]c4ccc(Br)cc14)C(=O)N[C@H](C(=O)N[C@@H](CCCNC(=N)N)C(=O)N[C@@H](CCCCN)C(=O)N[C@H](C(=O)N[C@H](C(N)=O)[C@@H](C)CC)[C@@H](C)CC)CSSC[C@H](NC(=O)[C@H](C)NC(=O)[C@H](CCCNC(=N)N)NC(=O)[C@H](CCCCN)NC(=O)[C@H](CCC(=O)O)NC(=O)[C@H](CC(=O)O)NC3=O)C(=O)N2` [compound 1244] are 0.64 nM, 7.4 nM and 12.

The term IC50 denotes the concentration at which inhibition is half-maximal.

The values are drawn from patent US10344060B2 (priority 2013, dated 2019).
